{
  "source": "patent US12324861B2",
  "about": "“Beaded nonwoven membrane as a drug delivery system” (CEBIOTEX, S.L., priority 2018, dated 2025)",
  "origin": "cited, not measured here",
  "key": {"[1]": {"conditions": "nude mice"}, "[2]": {"conditions": "systemic administration in patients"}},
  "data": [
    {"smiles": "CCc1c2c(nc3ccc(OC(=O)N4CCC(N5CCCCC5)CC4)cc13)-c1cc3c(c(=O)n1C2)COC(=O)[C@]3(O)CC", "note": "[Irinotecan]", "values": [
      {"measurement": "conversion to SN-38", "setting": "[1]", "result": "> 70", "unit": "%"},
      {"measurement": "conversion into the active derivative (SN-38)", "setting": "[2]", "result": "less than 10%"}
    ]}
  ]
}
